Columns and labels:
[1] = Nanosecond transient absorption difference spectroscopy; assay type: physicochemical; conditions: measured by transient absorption in CH3CN
Excerpt: Nanosecond transient absorption (TA) difference spectroscopy was employed to investigate the triplet excited states of M-Rho (FIG. 2c and FIGS. 16-19). Upon pulsed laser excitation at 355 nm, an intense bleaching signal at 575 nm with lifetime in microsecond range is observed, which is ascribed to the depletion of ground state rhodamine absorption. Such a long-lived excited state should be localized on the rhodamine unit, and is assigned as the ^3IL excited state of rhodamine in M-Rho. The absorption signal at 610-800 nm is due to the rhodamine ^3IL excited state absorption. In contrast, no signal from this triplet excited state is detected in bpy-Rho because of the lack of efficient ISC. On the other hand, only the transient absorption signals originating from the corresponding ^3MLCT excited states are observed in the rhodamine-free analogues (FIGS. 20-21).
The UV-vis absorption spectra were taken on Cary 60 UV-vis spectrophotometer. Steady-state emission spectra at room temperature were recorded on an Edinburgh Instruments FLS980 fluorescence spectrometer. Quartz cuvettes (path length=1 cm) were used in all spectrophotometric and fluorometric measurements. NMR spectra were recorded on a Bruker AVANCE 400 (^1H NMR for 400 MHz and ^13C NMR for 100 MHz) Fourier transform NMR spectrometer with chemical shifts reported relative to tetramethylsilane, (CH3)4Si. High-resolution MS spectra were performed on an Orbitrap Fusion Tribrid mass spectrometer. Elemental analyses of the newly synthesized complexes were preformed on a Elementar Vario EL Cube elemental analyzer at Sun Yat-sen University. The nanosecond time-resolved transient-difference absorption spectra were detected by using Edinburgh LP920 instruments (Edinburgh Instruments, U.K.). All solutions for transient absorption studies were degassed on a high-vacuum line in a two-compartment cell consisting of a 10-ml Pyrex bulb and a 1-cm or 4-mm path length quartz cuvette and sealed from the atmosphere by a Bibby Rotaflo HP6 Teflon stopper. The solutions were rigorously degassed with at least four successive freeze-pump-thaw cycles. Emission lifetime measurements were performed using a conventional laser system. The excitation source used was a 355-nm output (third harmonic) of a Spectra-Physics Quanta-Ray Q-switched GCR-150-10 pulsed Nd-YAG laser. Luminescence decay signals were detected by a Hamamatsu R928 PMT and recorded on a Tektronix Model TDS-620A (500 MHz, 2 GS/s) digital oscilloscope and analyzed using a program for exponential fits. Absolute quantum yields were measured by HAMAMATSU-C11347.

MCF-7 cells [2] = assay: Phototoxicity, CCK-8 assay and calcein-AM/PI staining; assay type: cell-based, human; conditions: 11-W lamp
Procedure: • 1. MCF-7 cells were seeded at 8×10^3-1×10^4 cells/well in 96 well plates then incubated for 24 h in 5% CO2 at 37° C. The stock solutions of the complexes(10 mM in DMSO) were diluted to appropriate concentrations with the complete medium and added to the cells to give final complexes concentrations (1, 2, 5, 10 μM). After incubation for 2 h, the well plate were irradiated with 11 W lamp 30 min. To achieve more uniform irradiation, the entire well plate was gently orbited on the shaker. After the irradiation, the cells were again incubated for 2 h, after which the cytotoxicity was determined by CCK8 assay and expressed as a percent of the controls (cells exposed to light in the absence of the complexes). • 2. The MCF-7 cells(500 cells/well) were seeded in eight-well chambered coverglasses (lab-Tek, Nunc, USA), and then incubated for 24 h in 5% CO2 at 37° C. Next, added to complexes(rho-bpy, rho-bpy-Pt-ph, rho-bpy-Rh-ppy, rho-bpy-Re and rho-bpy-Ir-ppy) in medium make the final concentrations of 5 μM complexes. After incubation for 2 h, the eight-well plate were irradiated with 11 W lamp 30 min. The flowing, fixed with 4% paraformaldehyde solution. After staining with calcein-AM and (Propidium iodide) PI, Leica TCS SP5 confocal laser scanning microscope (GER) was used to observe the viable and dead cells.

MCF-7 cells [3] = assay: Mitochondrial membrane potential, flow-cytometry-based JC-1 assay; assay type: cell-based, human; conditions: 5 uM, 11 W lamp 30 min
Procedure: Mitochondrial depolarization was assessed by flow cytometry after incubation with JC-1 Molecular Probes (Thermo Fisher Scientific, USA). Briefly, The MCF-7 cells were seeded in six-well plate, incubated for 24 h in 5% CO2 at 37° C. Next, added to compounds (bpy-Rho and M-Rho) in medium make the final concentrations of 5 uM compounds. After irradiation treatment (11 W lamp 30 min). The cells were resuspended in warm PBS, and incubated with JC-1 (4 μg/ml) for 30 min at 37° C. and 5% CO2. Thereafter the cells were centrifuged, resuspended in 600 μL of PBS, and analyzed immediately on a flow cytometer (Becton Dickinson, San Jose, Calif., USA). Untreated cells were used as negative controls.

tumor cells = assay: Selective uptake by flow cytometry, tumor cells versus normal cells; assay type: cell-based; conditions: among bpy-Rho and M-Rho
Procedure: Tumor cells (MCF-7/A 549/HepG2/4T1) and normal cells (MCF-10A/293T/L02/NIH-3T3) (1×10^4 cells) was cultured in six-well plate for 12 h. and then Cells were changed with a medium containing 5 μM complexes (rho-bpy, rho-bpy-Pt-ph, rho-bpy-Rh-ppy, rho-bpy-Re and rho-bpy-Ir-ppy). Cells were washed three times with PBS after 2 h of incubation, Then the cells were harvested, and the fluorescence intensity of complexes were recorded by flow cytometer.

CCN(CC)c1ccc2c(-c3ccnc(-c4cc(C)ccn4)c3)c3ccc(=[N+](CC)CC)cc-3oc2c1.F[P-](F)(F)(F)(F)F.F[P-](F)(F)(F)(F)F.c1ccc(-c2cccc[c]2[Ir+][c]2ccccc2-c2ccccn2)nc1 [Ir-Rho]
TT (triplet-state lifetimes) [1]: 0.82 μs
cell death upon irradiation (MCF-7 cells [2]; concentration of 10 μM): Significant cell death
PDT performance, ranking (MCF-7 cells [2]; among M-Rho): best PDT performance
ratio of JC-1 aggregates/JC-1 monomers (MCF-7 cells [3]): 1.79
uptake efficiency and affinity to tumor cells, ranking (tumor cells): highest uptake efficiency and affinity

Reference: patent US11214586B2, “Rhodamine triplet state complex and preparation and photodynamic therapy (PDT) study thereof” (SOUTHERN UNIVERSITY OF SCIENCE AND TECHNOLOGY, priority 2018, dated 2022)
